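Following 48 hours of exposure in 96-well plates, responses at five concentrations were used to interpolate endpoints linearly. GI50: concentration for 50% inhibition of growth.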 Calls of active or inactive are those of the source. Rule as the data show it: active = GI50 up to about 1.1 µM and inactive = higher.
Tests used:
Experiment in all cases: NCI tumour cell line growth inhibition, 48 h
[1] = test system: ACHN
[2] = test system: HOP-92
[3] = test system: Hs-578T
[4] = test system: IGROV-1
[5] = test system: M14
[6] = test system: MDA-MB-231
[7] = test system: MOLT-4
[8] = test system: NCI-H23
[9] = test system: NCI-H460
[10] = test system: NCI/ADR-RES
[11] = test system: OVCAR-4
[12] = test system: SF-295
[13] = test system: SN12C
[14] = test system: SR
[15] = test system: SW-620
[16] = test system: TK-10
[17] = test system: U-251
[18] = test system: COLO 205
[19] = test system: SF-539

Structure (SMILES) | GI50 [1] | GI50 [2] | GI50 [3] | GI50 [4] | GI50 [5] | GI50 [6] | GI50 [7] | GI50 [8] | GI50 [9] | GI50 [10] | GI50 [11] | GI50 [12] | GI50 [13] | GI50 [14] | GI50 [15] | GI50 [16] | GI50 [17] | GI50 [18] | GI50 [19]
OCCCN(CCc1ccc(Cl)c(Cl)c1)CCN1CCCC1 | 64.6 µM (inactive) | > 100 µM (inactive) | 38.8 µM (inactive) | > 100 µM (inactive) | 17.4 µM (inactive) | 32.5 µM (inactive) | 39.2 µM (inactive) | 69.8 µM (inactive) | 51.2 µM (inactive) | 81.5 µM (inactive) | > 100 µM (inactive) | 34 µM (inactive) | 73.3 µM (inactive) | 31.8 µM (inactive) | 81.5 µM (inactive) | 40.6 µM (inactive) | 48.1 µM (inactive) |  | 
NNC1=Nc2ccc(Cl)cc2C(=S)N2CSCC12 (configuration not stated) | > 100 µM (inactive) |  | > 100 µM (inactive) | > 100 µM (inactive) | > 100 µM (inactive) | > 100 µM (inactive) | > 100 µM (inactive) |  | > 100 µM (inactive) | > 100 µM (inactive) | > 100 µM (inactive) | > 100 µM (inactive) | > 100 µM (inactive) | > 100 µM (inactive) | > 100 µM (inactive) | > 100 µM (inactive) | > 100 µM (inactive) | > 100 µM (inactive) | 
O=c1oc2c/c(=C\c3ccc([N+](=O)[O-])cc3)c(=O)c3cccc1c3-2 | > 100 µM (inactive) | 52 µM (inactive) | > 100 µM (inactive) | > 100 µM (inactive) | > 100 µM (inactive) | > 100 µM (inactive) | > 100 µM (inactive) | > 100 µM (inactive) | > 100 µM (inactive) | > 100 µM (inactive) |  | > 100 µM (inactive) | > 100 µM (inactive) | > 100 µM (inactive) | > 100 µM (inactive) | 21.9 µM (inactive) | 28.6 µM (inactive) | > 100 µM (inactive) | 
C=C(CC[C@@H](C(=O)O)[C@H]1[C@H](O)C[C@@]2(C)C3=CC[C@@H](C(=C)C)[C@](C)(CCC(=O)O)C3=CC[C@]12C)C(C)C [PORICOIC ACID A] | 17.6 µM (inactive) | 16.6 µM (inactive) | 22.6 µM (inactive) |  | 17.9 µM (inactive) | 20.8 µM (inactive) | 22.1 µM (inactive) | 16.9 µM (inactive) | 18.2 µM (inactive) | 19.7 µM (inactive) | 21.1 µM (inactive) | 17.5 µM (inactive) | 16.7 µM (inactive) |  | 22.2 µM (inactive) | 17.8 µM (inactive) | 18 µM (inactive) | 23.1 µM (inactive) | 20 µM (inactive)
COc1ccc(N2C=Nn3c(nc4sc(C)c(C)c4c3=O)C2)cc1 | > 100 µM (inactive) | > 100 µM (inactive) | > 100 µM (inactive) | > 100 µM (inactive) | > 100 µM (inactive) | > 100 µM (inactive) | > 100 µM (inactive) | > 100 µM (inactive) | > 100 µM (inactive) | > 100 µM (inactive) | > 100 µM (inactive) | > 100 µM (inactive) | > 100 µM (inactive) | > 100 µM (inactive) | > 100 µM (inactive) | > 100 µM (inactive) | > 100 µM (inactive) | > 100 µM (inactive) | 
COc1ccc(N2C(=O)C(C#N)=C(SC)C(C#N)C2=O)cc1 (configuration not stated) | > 100 µM (inactive) | 46.6 µM (inactive) | 22.8 µM (inactive) | > 100 µM (inactive) | > 100 µM (inactive) | > 100 µM (inactive) | > 100 µM (inactive) |  | > 100 µM (inactive) | > 100 µM (inactive) | > 100 µM (inactive) | > 100 µM (inactive) | > 100 µM (inactive) |  | > 100 µM (inactive) | > 100 µM (inactive) | > 100 µM (inactive) | > 100 µM (inactive) | > 100 µM (inactive)
CC(C)(C)C1CCC2c3c([nH]c4ccccc34)C3C(=O)N(c4ccc(C#N)cc4)C(=O)C3C2C1 (configuration not stated) | 15.1 µM (inactive) | 4.54 µM (inactive) | 11.2 µM (inactive) | 16.4 µM (inactive) | 16.1 µM (inactive) | 15.3 µM (inactive) | 0.678 µM (active) | 6.61 µM (inactive) | 3.81 µM (inactive) | 17.6 µM (inactive) |  | 29.2 µM (inactive) | 9.59 µM (inactive) | 6.47 µM (inactive) | 8.13 µM (inactive) | 20.3 µM (inactive) | 15.8 µM (inactive) | 21.4 µM (inactive) | 18.7 µM (inactive)
COC(=O)C1=Cc2cc(OC)c(O)cc2[C@@H](c2ccc(O)c(OC)c2)[C@@H]1C(=O)OC | > 100 µM (inactive) | 53.7 µM (inactive) | 78.9 µM (inactive) | > 100 µM (inactive) | > 100 µM (inactive) | 39.2 µM (inactive) | > 100 µM (inactive) | > 100 µM (inactive) | > 100 µM (inactive) | > 100 µM (inactive) |  | > 100 µM (inactive) | > 100 µM (inactive) | > 100 µM (inactive) | > 100 µM (inactive) |  | > 100 µM (inactive) | > 100 µM (inactive) | > 100 µM (inactive)
